This note sets out measurements from patent US7851467B2, “Carbamate compounds as 5-HT4 receptor agonists” (Theravance, Inc., priority 2005, dated 2010).

Data set [1] deals with T1, human 5-HT4(c) receptor (Homo sapiens, UniProt Q13639).
T1 construct: expressed in transfected cells; host or cells: HEK-293
In words: Radioligand binding assay on 5-HT4(c) human receptors ([3H]-GR113808 displacement). The note with it: HEK-293 membranes, [3H]-GR113808 at 0.15 nM, read-out: pKi value (converted). As for the experimental part:
Assay 1: Radioligand Binding Assay on 5-HT4(C) Human Receptors a. Membrane Preparation 5-HT4(c)
HEK-293 (human embryonic kidney) cells stably-transfected with human 5-HT4(C) receptor cDNA (Bmax=˜6.0 pmol/mg protein, as determined using [^3H]-GR113808 membrane radioligand binding assay) were grown in T-225 flasks in Dulbecco's Modified Eagles Medium (DMEM) containing 4,500 mg/L D-glucose and pyridoxine hydrochloride (GIBCO-Invitrogen Corp., Carlsbad Calif.: Cat #11965) supplemented with 10% fetal bovine serum (FBS) (GIBCO-Invitrogen Corp.: Cat #10437), 2 mM L-glutamine and (100 units) penicillin-(100 μg) streptomycin/ml (GIBCO-Invitrogen Corp.: Cat #15140) in a 5% CO2, humidified incubator at 37° C. […]
For the membrane preparation, cell pellets were resuspended in ice-cold 50 mM 4-(2-hydroxyethyl)-1-piperazineethanesulphonic acid (HEPES), pH 7.4 (membrane preparation buffer) (40 mL/total cell yield from 30-40 T225 flasks) and homogenized using a polytron disrupter (setting 19, 2×10 s) on ice. […] Protein concentration of the membrane suspension was determined by the method of Bradford (Bradford, 1976). […]
Test compounds were received as 10 mM stock solutions in DMSO and diluted to 400 μM into 50 mM HEPES pH 7.4 at 25° C., containing 0.1% BSA, and serial dilutions (1:5) then made in the same buffer. Non-specific binding was determined in the presence of 1 μM unlabeled GR113808. […]

Data set [2] can be described thus: Pharmacokinetic study in the rat. The class given is in vivo. Particulars: male Sprague-Dawley rats. As for the experimental part:
Assay 6: Pharmacokinetic Study in the Rat
Aqueous solution formulations of test compounds were prepared in 0.1% lactic acid at a pH of between about 5 and about 6. Male Sprague-Dawley rats (CD strain, Charles River Laboratories, Wilmington, Mass.) were dosed with test compounds via intravenous administration (IV) at a dose of 2.5 mg/kg or by oral gavage (PO) at a dose of 5 mg/kg. The dosing volume was 1 mL/kg for IV and 2 mL/kg for PO administration. Serial blood samples were collected from animals pre-dose, and at 2 (IV only), 5, 15, and 30 min, and at 1, 2, 4, 8, and 24 hours post-dose. Concentrations of test compounds in blood plasma were determined by liquid chromatography-mass spectrometry analysis (LC-MS/MS) (MDS SCIEX, API 4000, Applied Biosystems, Foster City, Calif.) with a lower limit of quantitation of 1 ng/mL.
Standard pharmacokinetic parameters were assessed by non-compartmental analysis (Model 201 for IV and Model 200 for PO) using WinNonlin (Version 4.0.1, Pharsight, Mountain View, Calif.). The maximum in the curve of test compound concentration in blood plasma vs. time is denoted Cmax. The area under the concentration vs. time curve from the time of dosing to the last measurable concentration (AUC(O-t)) was calculated by the linear trapezoidal rule. Oral bioavailability (F(%)), i.e. the dose-normalized ratio of AUC(O-t) for PO administration to AUC(O-t) for IV administration, can be calculated as: F(%)=AUCPO/AUCIV×DoseIV/DosePO×100%
The compounds of the invention that were tested in this assay had Cmax values between about 0.15 to about 0.35 μg/mL and AUC(0−t) values between about 0.5 to about 1.1 μg·hr/mL.

Setting [3] is: blood plasma, dosing IV 2.5 mg/kg or PO 5 mg/kg.

T1 sequence (Q13639 1-380 isoform Q13639-4): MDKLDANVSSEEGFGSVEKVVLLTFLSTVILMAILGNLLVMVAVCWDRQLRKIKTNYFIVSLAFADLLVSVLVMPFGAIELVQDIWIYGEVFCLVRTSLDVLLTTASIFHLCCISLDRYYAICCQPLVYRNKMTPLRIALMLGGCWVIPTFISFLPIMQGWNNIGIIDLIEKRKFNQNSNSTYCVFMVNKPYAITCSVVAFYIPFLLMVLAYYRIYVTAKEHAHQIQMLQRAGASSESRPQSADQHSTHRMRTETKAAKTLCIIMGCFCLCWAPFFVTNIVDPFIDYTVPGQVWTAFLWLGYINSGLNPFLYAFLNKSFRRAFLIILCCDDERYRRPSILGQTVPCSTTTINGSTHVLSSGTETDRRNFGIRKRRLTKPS

On to `CC(C)n1c(=O)n(C(=O)N[C@H]2C[C@H]3CC[C@@H](C2)N3CCCOC(=O)N2CCN(C(=O)C3CCCO3)CC2)c2ccccc21` (stereo partly drawn) [Example 1, 4-(tetrahydrofuran-2-carbonyl)piperazine-1-carboxylic acid 3-{(1S,3R,5R)-3-[(3-isopropyl-2-oxo-2,3-dihydrobenzoimidazole-1-carbonyl)amino]-8-aza-bicyclo[3.2.1]oct-8-yl}propyl ester], for which the Ki in data set [1] was 12.6 nM. In addition, in data set [2] (setting [3]), the AUC(0-t) (as a rule, exposure summed from dosing to a finite time, without extrapolation to infinity) came to 970 ng·h/mL and the highest concentration (Cmax) – broadly, the maximum level reached in the sampled fluid or tissue – was determined as 320 ng/mL. The bioavailability – broadly, dose-corrected exposure relative to a reference, in per cent – in data set [2] (plasma, PO 5 mg/kg vs IV 2.5 mg/kg, dose-normalized AUC ratio, read-out: oral bioavailability F(%)) worked out at 55%.
